From article PMC4831468, “White collar 1‐induced photolyase expression contributes to UV‐tolerance of Ustilago maydis” (MicrobiologyOpen, 2015)

How the values were obtained:
Format in all cases: binding
Phr1 [1] = molecular target: T1, Phr1 (Mycosarcoma maydis, UniProt A0A0D1DNG6); experiment: UV-Vis absorption spectroscopy of copurified chromophore (about […] nm peak); settings: copurified from E. coli; antenna chromophore, second site beside FAD; assigned from spectrum only
T1 construct: gene UMAG_06079
T1 sequence (A0A0D1DNG6 1-655): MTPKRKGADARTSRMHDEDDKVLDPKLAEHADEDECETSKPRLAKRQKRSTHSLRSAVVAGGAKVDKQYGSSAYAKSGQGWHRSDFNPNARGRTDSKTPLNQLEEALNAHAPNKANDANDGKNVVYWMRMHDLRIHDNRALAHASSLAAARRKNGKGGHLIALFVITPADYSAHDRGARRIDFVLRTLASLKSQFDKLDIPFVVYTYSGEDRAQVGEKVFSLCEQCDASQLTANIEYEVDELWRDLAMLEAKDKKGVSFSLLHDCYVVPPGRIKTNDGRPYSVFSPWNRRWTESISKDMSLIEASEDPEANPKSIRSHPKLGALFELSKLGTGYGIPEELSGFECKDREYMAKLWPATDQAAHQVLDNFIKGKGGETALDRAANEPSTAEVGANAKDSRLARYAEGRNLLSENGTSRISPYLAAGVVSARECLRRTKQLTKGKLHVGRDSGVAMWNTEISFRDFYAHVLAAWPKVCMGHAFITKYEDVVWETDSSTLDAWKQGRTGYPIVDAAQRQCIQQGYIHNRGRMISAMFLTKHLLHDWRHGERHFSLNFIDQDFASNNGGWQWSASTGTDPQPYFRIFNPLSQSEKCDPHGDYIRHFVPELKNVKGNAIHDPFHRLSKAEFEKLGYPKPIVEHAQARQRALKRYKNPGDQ

Cry2 [2] = molecular target: T2, Cry2 (Mycosarcoma maydis, UniProt A0A0D1DUB1); experiment: as above; settings: copurified from E. coli; antenna chromophore, second site beside FAD; assigned from spectrum only
T2 construct: gene UMAG_05917; pET51b, 10xHis- and Strep-tagged, E. coli Arctic Express
T2 sequence (A0A0D1DUB1 1-623): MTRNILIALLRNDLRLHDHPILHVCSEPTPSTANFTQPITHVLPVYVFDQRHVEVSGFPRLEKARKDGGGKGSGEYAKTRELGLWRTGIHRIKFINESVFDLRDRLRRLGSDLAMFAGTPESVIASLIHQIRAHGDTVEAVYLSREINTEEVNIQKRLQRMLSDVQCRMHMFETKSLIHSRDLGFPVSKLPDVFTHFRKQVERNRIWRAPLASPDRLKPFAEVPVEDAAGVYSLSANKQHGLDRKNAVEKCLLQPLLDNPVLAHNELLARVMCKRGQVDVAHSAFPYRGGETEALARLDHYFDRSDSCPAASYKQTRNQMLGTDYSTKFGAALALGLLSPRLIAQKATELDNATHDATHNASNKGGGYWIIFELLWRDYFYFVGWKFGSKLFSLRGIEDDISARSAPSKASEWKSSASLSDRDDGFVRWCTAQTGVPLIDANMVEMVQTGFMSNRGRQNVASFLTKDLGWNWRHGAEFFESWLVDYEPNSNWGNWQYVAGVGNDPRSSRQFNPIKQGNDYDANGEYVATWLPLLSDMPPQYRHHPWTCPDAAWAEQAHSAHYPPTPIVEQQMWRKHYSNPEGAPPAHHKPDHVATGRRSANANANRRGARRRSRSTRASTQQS

Cry1 = molecular target: T3, Cry1 (Mycosarcoma maydis, UniProt A0A0D1CDQ8); experiment: UV-Vis absorption spectroscopy of copurified chromophore; blue-light photoreduction; settings: copurified from E. coli; photoreduction with 10 mM DTT, pH 7.5, 15 C
T3 construct: gene UMAG_01131; pET51b, 10xHis- and Strep-tagged, synthetic cDNA, E. coli BL21(DE3)
T3 sequence (A0A0D1CDQ8 1-881): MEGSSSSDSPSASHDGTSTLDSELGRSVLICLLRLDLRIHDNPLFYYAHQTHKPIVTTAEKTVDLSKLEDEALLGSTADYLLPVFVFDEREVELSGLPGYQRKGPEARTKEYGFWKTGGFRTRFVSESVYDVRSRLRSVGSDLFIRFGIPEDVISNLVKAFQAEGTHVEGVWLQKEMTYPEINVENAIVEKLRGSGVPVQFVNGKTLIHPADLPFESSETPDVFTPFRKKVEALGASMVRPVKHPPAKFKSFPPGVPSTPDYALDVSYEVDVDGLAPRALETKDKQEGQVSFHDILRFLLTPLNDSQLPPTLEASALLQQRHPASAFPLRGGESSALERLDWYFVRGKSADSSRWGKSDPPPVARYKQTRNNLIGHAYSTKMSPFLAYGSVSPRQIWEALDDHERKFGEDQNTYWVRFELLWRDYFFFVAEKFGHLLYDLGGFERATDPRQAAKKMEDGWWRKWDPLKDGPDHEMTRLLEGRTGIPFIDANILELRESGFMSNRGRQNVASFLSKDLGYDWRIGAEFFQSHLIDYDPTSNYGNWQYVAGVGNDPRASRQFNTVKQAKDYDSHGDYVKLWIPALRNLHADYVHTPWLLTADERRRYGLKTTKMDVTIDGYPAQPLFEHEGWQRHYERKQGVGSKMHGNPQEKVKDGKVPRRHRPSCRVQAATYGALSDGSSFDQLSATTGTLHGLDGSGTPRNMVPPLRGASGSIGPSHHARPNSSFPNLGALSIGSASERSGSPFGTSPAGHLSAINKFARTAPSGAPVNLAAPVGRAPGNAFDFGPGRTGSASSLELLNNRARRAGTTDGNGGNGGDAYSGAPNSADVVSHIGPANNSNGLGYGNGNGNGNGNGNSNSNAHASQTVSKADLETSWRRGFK

Cry2 [3] = molecular target: T2, Cry2; experiment: as above; settings: copurified from E. coli; photoreduction with 10 mM DTT, pH 7.5, 15 C
Phr2 = molecular target: T4, Phr2 (Mycosarcoma maydis, UniProt A0A0D1E060); experiment: as above; settings: copurified from E. coli; photoreduction with 10 mM DTT, pH 7.5, 15 C
T4 construct: gene UMAG_02144; pET51b, 10xHis- and Strep-tagged, E. coli Rosetta(DE3)
T4 sequence (A0A0D1E060 1-684): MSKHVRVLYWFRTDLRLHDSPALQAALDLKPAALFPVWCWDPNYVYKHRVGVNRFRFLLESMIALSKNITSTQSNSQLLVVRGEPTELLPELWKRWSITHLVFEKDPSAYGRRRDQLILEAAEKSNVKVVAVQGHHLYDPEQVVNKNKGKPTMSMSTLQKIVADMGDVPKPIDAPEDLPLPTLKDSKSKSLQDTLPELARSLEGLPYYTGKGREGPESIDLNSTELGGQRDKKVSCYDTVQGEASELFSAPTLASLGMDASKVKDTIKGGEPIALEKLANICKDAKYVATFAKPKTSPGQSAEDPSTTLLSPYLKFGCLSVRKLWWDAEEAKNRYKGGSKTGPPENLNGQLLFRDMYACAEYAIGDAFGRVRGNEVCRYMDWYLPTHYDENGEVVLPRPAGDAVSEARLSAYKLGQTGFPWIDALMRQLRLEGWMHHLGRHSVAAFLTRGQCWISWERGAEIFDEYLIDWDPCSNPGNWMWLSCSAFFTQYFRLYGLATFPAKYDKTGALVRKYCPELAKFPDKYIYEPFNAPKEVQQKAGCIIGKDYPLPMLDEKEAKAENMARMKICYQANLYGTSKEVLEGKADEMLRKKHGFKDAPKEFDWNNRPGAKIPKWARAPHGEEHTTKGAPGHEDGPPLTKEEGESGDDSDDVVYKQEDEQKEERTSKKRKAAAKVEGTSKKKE

Phr1 [4] = molecular target: T1, Phr1; experiment: as above; settings: copurified from E. coli; photoreduction with 10 mM DTT, pH 7.5, 15 C

`Nc1nc2c(c(=O)[nH]1)[N+]1=CN(c3ccc(C(=O)N[C@@H](CCC(=O)O)C(=O)O)cc3)C[C@H]1CN2` [MTHF] was tested, and the “UV-Vis absorption spectroscopy of copurified chromophore (about 380 nm peak)” value (Phr1 [1]) was “Methenyltetrahydrofolate (MTHF) is the second cofactor of Cry2 and Phr1” and the “UV-Vis absorption spectroscopy of copurified chromophore (about 380 nm peak)” value (Cry2 [2]) was “Methenyltetrahydrofolate (MTHF) is the second cofactor of Cry2 and Phr1”.
In the case of `Cc1cc2nc3c(=O)[nH]c(=O)nc-3n(C[C@H](O)[C@H](O)[C@H](O)COP(=O)(O)OP(=O)(O)OC[C@H]3O[C@@H](n4cnc5c(N)ncnc54)[C@H](O)[C@@H]3O)c2cc1C` [FAD], the “UV-Vis absorption spectroscopy of copurified chromophore; blue-light photoreduct” value (Cry1) is reported as “these data proved that all CPF members of U. maydis bind FAD”, the “UV-Vis absorption spectroscopy of copurified chromophore; blue-light photoreduct” value (Cry2 [3]) is reported as “these data proved that all CPF members of U. maydis bind FAD” and the “UV-Vis absorption spectroscopy of copurified chromophore; blue-light photoreduct” value (Phr2) is reported as “these data proved that all CPF members of U. maydis bind FAD”. For the same molecule, the “UV-Vis absorption spectroscopy of copurified chromophore; blue-light photoreduct” value (Phr1 [4]) was “these data proved that all CPF members of U. maydis bind FAD”.
